PubChem BioAssay AID2743 (NMMLSC, 2010)
Several values for one entry are separate records, joined by “and”; a condition that tells them apart may be missing. Identical values can stand only once. Activity calls are given as the source filed them.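 Rule for the calls: active = fitted half-maximal concentration for change in GFP expression of 33 µM or less; inactive = the rest.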

Assay: concentration-dependent AGP1-GFP change, TOR pathway – cell-based, flow cytometry, S. cerevisiae, MLPCN hits, dose response (AID 2743)
Settings: S. cerevisiae AGP1-GFP strain, flow cytometry GFP, 3 h; at 33 µM (top of the series)

Row | SMILES | GFP fluorescence (kMESF)
1 | O=C1C(Cl)=C(Nc2ccccc2O)C(=O)N1c1ccccc1 | 38.4 kMESF (inactive)
2 | Cc1ccc2[nH]c(C)c(/C=C/c3cc[n+](C)cc3)c2c1 | 38.4 kMESF (inactive)
3 | C#CCOc1c(Br)cc(/C=C2/C(=O)ON=C2C)cc1OC | 27.6 kMESF (inactive)
4 | CS(=O)(=O)N1N=C(c2ccccc2)CC1c1ccc2c(c1)OCO2 (centres undefined) | 126 kMESF (inactive)
5 | COc1ccccc1N1C(=O)c2cccc3c(C(=O)O)ccc(c23)C1=O | 49 kMESF (inactive)
6 | Cc1c(NC2=C(Cl)C(=O)N(c3ccccc3Cl)C2=O)c(=O)n(-c2ccccc2)n1C | 38.1 kMESF (inactive)
7 | COc1ccc(C(c2c(C)[nH]n(C(N)=S)c2=O)C(C#N)C#N)cc1 (centres undefined) | 44.2 kMESF (inactive)
8 | CCN(CC)C(=S)SSC(=S)N(CC)CC | 37.5 kMESF (inactive)
9 | CC(C)(C)c1cc(C(c2cccnc2)N2CCN(CCO)CC2)cc(C(C)(C)C)c1O (centres undefined) | 42.2 kMESF (inactive)
10 | Oc1ccc2ccccc2c1/C=N/Nc1nnc(-c2ncc[nH]2)c2ccccc12 | 21.8 kMESF (inactive)
11 | COc1ccc([C@@]2(C(C)C)ON(c3ccccc3C(F)(F)F)C2=O)cc1 | 39.4 kMESF (inactive)
12 | N#C/C(=C\c1ccccn1)c1nc2ccccc2s1 | 41.8 kMESF (inactive)
13 | Cc1ccc(NC(=O)CCc2ccccc2)cc1S(=O)(=O)N1CCOCC1 | 40.4 kMESF (inactive)
14 | O=C1/C(=C\c2ccc(O)c(O)c2)SC(=S)N1Cc1ccccc1 | 10.8 kMESF (inactive)
15 | Cc1[nH]n(-c2ncc(-c3ccccc3)s2)c(=O)c1C(c1ccc(Cl)cc1)C(C#N)C#N (centres undefined) | 40.6 kMESF (inactive)
16 | O=C(Nc1ccccc1)ON=C1CCCC1 | 21.6 kMESF (inactive)
17 | COC(=O)CCC(=O)OC1(C)C(=O)C2=COC(c3ccc(OC)cc3)=CC2=C(Br)C1=O (centres undefined) | 7.85 kMESF (inactive)
18 | COc1cccc(/C=N/Nc2ncc(C(F)(F)F)cc2Cl)c1O | 34.3 kMESF (inactive)
19 | O=C1N(c2ccccc2C(F)(F)F)O[C@@]1(c1ccccc1)C1CCCC1 | 38.4 kMESF (inactive)
20 | CN(C)c1ccc(/C=C/c2cc[n+](C)cc2)cc1 | 30 kMESF (inactive)
21 | Cc1ccccc1OCCOC(=O)c1ccc(S(=O)(=O)N2CCCC2)cc1 | 38.1 kMESF (inactive)
22 | COc1ccc(/C=C/C(=O)c2cc(Br)ccc(=O)c2O)cc1 | -39.3 kMESF (inactive)
23 | Cc1cc(/C=C2/SC(=S)N(c3cccc(Cl)c3)C2=O)c(C)n1-c1cccnc1 | 46.4 kMESF (inactive)

Row | SMILES | GFP fluorescence (kMESF)
24 | N/C(=N\OC(=O)c1cc(Br)ccc1Cl)c1ccccn1 | 31.3 kMESF (inactive)
25 | O=C(O)c1ccc2c(c1)C(=O)/C(=C/c1ccccc1)C2=O | 40.5 kMESF (inactive)
26 | CC(C)(C)c1ccc(NC(=O)COC(=O)c2ccc([N+](=O)[O-])s2)cc1 | 14.7 kMESF (inactive)
27 | Cc1cc(O)c(C(=O)/C=C/c2c(F)c(F)c(F)c(F)c2F)c(=O)o1 | 21.2 kMESF (inactive)
28 | COC(CNC(=O)c1ccc2c3c(onc13)-c1ccccc1C2=O)OC | 1.89 kMESF (inactive)
29 | O=C1C(Cl)=C(Nc2ccccc2O)C(=O)N1CCc1ccccc1 | 39.3 kMESF (inactive)
30 | Oc1ccc(CNc2ccccc2)c2cccnc12 | 36.5 kMESF (inactive)
31 | Cc1ccc(/C(N)=N/OC(=O)c2ccc(F)cc2)cc1 | 23.1 kMESF (inactive)
32 | O=C1NC(=S)NC(=O)C1=Cc1ccc2c(c1)CCN2CCCCl | 35 kMESF (inactive)
33 | O=C(COc1ccc(F)cc1Cl)Nc1nc(-c2ccccn2)cs1 | 33.9 kMESF (inactive)
34 | CCOC(=O)c1cc(-c2ccc(/C=C3/C(=O)NC(=O)C(C#N)=C3C)o2)ccc1Cl | 28.2 kMESF (inactive)
35 | COc1cccc(/C=C2\SC(=S)N(CCCC(=O)Nc3ccc(C(=O)O)cc3)C2=O)c1 | 34.8 kMESF (inactive)
36 | CCCc1cc(=O)oc2cc(C)cc(OCC(=O)NC3CC3)c12 | 41 kMESF (inactive)
37 | O=C(CCS(=O)(=O)c1ccccc1)Nc1nc(-c2ccccn2)cs1 | 35.9 kMESF (inactive)
38 | COc1cccc2cc(-c3nc4ccccc4o3)c(=O)oc12 | 20.9 kMESF (inactive)
39 | CC(C)CC(=O)NC(=S)Nc1nc(-c2ccccc2)cs1 | 38.8 kMESF (inactive)
40 | C=CCn1c(C)c(/C=C/c2cc[n+](C)cc2)c2ccccc21 | 42.5 kMESF (inactive)
41 | O=[N+]([O-])c1cc(CN2CCN(c3ccccc3)CC2)c(O)c2ncccc12 | 27 kMESF (inactive)
42 | Cc1ccc(S(=O)(=O)N2CC(C(=O)O)=CC[C@H]2c2ccc(Cl)cc2)cc1 | 39.2 kMESF (inactive)
43 | Cc1ccc2c(nc3s/c(=C\c4ccc(-c5ccccc5C(=O)O)o4)c(=O)n32)c1C | 49.9 kMESF (inactive)
44 | CCCOc1ccc(C(=O)NNC(=S)NC(=O)c2ccco2)cc1 | 50.3 kMESF (inactive)
45 | O=C(Oc1c(Cl)cc(Cl)c2cccnc12)c1ccco1 | 40.7 kMESF (inactive)
46 | Cc1ccc2nc(Cl)c3nnnn3c2c1 | 33.8 kMESF (inactive)

Row | SMILES | GFP fluorescence (kMESF)
47 | O=C1N(c2ccccc2C(F)(F)F)O[C@@]1(c1ccccc1)C1CCCCC1 | 36.2 kMESF (inactive)
48 | Oc1ccc2ccccc2c1N=Nc1nccs1 | 43.4 kMESF (inactive)
49 | O=C(c1ccc(Cl)cc1)N1CCN(c2cccc3[nH]ccc23)CC1 | 46.1 kMESF (inactive)
50 | C#CCOCCOCCOCCNc1nc(N2CCN(C(=O)CCCCCCCCCCNC(=O)[C@@H](CCC(=O)O)n3cc(CCCCCN)nn3)CC2)nc(N2CCN(C(=O)CCCCCCCCCCNC(=O)[C@H](CCCCN)n3cc(C[C@@H](C)CC)nn3)CC2)n1 | 51.4 kMESF (inactive)
51 | COc1ccc(NC2=C(Cl)C(=O)N(CCc3ccccc3)C2=O)c(OC)c1 | 35.3 kMESF (inactive)
52 | O=[N+]([O-])c1ccc(O)c2ncccc12 | 39.4 kMESF (inactive) and 32.2 kMESF (inactive)
53 | COc1ccc(N/N=C(\C#N)C(N)=O)cc1 | 52.4 kMESF (inactive)
54 | COC(=O)c1cc(N2C(=O)C3C(C2=O)C2(C)C=CC3(C)O2)ccc1Cl (centres undefined) | 47.1 kMESF (inactive)
55 | Cc1cc(C(=O)COC(=O)c2ccc[nH]c2=O)c(C)n1-c1ccccc1F | 24.1 kMESF (inactive)
56 | O=C(c1ccc(C(=O)N2CCCc3ccccc32)s1)N1CCCc2ccccc21 | 38.6 kMESF (inactive)
57 | COc1cc(NC(=O)c2ccccc2[N+](=O)[O-])ccc1NC(=O)c1cc2ccccc2o1 | 44.3 kMESF (inactive)
58 | Oc1c(CN2CCN(c3ccc(F)cc3)CC2)cc(Cl)c2cccnc12 | 41.8 kMESF (inactive)
59 | O=C(Nc1ccc(O)cc1)C1CCCN1S(=O)(=O)c1ccc(F)cc1 (centres undefined) | 42.4 kMESF (inactive)
60 | COc1ccc2c(/C=C/c3cc[n+](C)cc3)c[nH]c2c1 | 44.4 kMESF (inactive)
61 | N#Cc1nccnc1S(=O)(=O)c1cccs1 | 38.7 kMESF (inactive)
62 | COc1cc(N2C(=O)C=CC2=O)c(OC)cc1Cl | 33.8 kMESF (inactive)
63 | O=C(Oc1oc(-c2ccco2)nc1C=Nc1ccccc1)c1ccco1 | 43.5 kMESF (inactive)
64 | O=C(c1ccc(Cl)c([N+](=O)[O-])c1)N1CCN(c2ccccc2)CC1 | 62.6 kMESF (inactive)
65 | CCCCOc1ccc(C(=O)NNC(=S)NC(=O)CC)cc1 | 39.6 kMESF (inactive)
66 | COc1ccc(C=C2C(=O)c3ccccc3C2=O)cc1O | 34.7 kMESF (inactive)
67 | CCCCC(=O)NNC(=S)NC(=O)c1ccc(C)cc1 | 58.2 kMESF (inactive)
68 | COc1ccccc1[C@]1(C)ON(c2ccccc2C(F)(F)F)C1=O | 30.3 kMESF (inactive)
69 | O=C(Oc1c(Cl)cc(Cl)c2cccnc12)c1cccc([N+](=O)[O-])c1 | 34.3 kMESF (inactive)

Row | SMILES | GFP fluorescence (kMESF)
70 | CCN1/C(=C/c2ccc3cc(C)ccc3[n+]2CC)Sc2ccc3sccc3c21 | 43.3 kMESF (inactive)
71 | CC[C@]1(c2ccccc2C)ON(c2ccccc2C(F)(F)F)C1=O | 38.9 kMESF (inactive)
72 | CCOC(=O)c1c(C)oc2c1c(C(c1cccnc1)N1CCOCC1)c(O)c1ccccc12 (centres undefined) | 29.9 kMESF (inactive)
73 | Fc1cccc(Nc2ncnc3c2cnn3-c2ccccc2)c1 | 37 kMESF (inactive)
74 | Cc1ccc(C(=O)Oc2oc(-c3ccco3)nc2C=Nc2ccc(Cl)cc2)cc1 | 35 kMESF (inactive)
75 | O=C(/C=C/Sc1ncn[nH]1)c1ccc(Cl)cc1 | 38 kMESF (inactive)
76 | CCn1c(=O)c(C(C)=O)c(O)c2ccccc21 | 41.4 kMESF (inactive)
77 | COc1ccc(C(=O)NC(=S)NNC(=O)c2cnccn2)cc1OC | 30.2 kMESF (inactive)
78 | CCC(=O)Oc1oc(-c2ccccc2)nc1C=Nc1ccc(C)cc1 | 41.9 kMESF (inactive)
79 | Cc1nc2ccc(NC(=O)c3oc4ccc(F)cc4c3C)cc2s1 | 35.7 kMESF (inactive)
80 | O=C(Nc1ccc(NC(=O)c2cc3ccccc3o2)cc1)c1ccco1 | 44.8 kMESF (inactive)
81 | CCCc1cc(NCc2ccccn2)n2nc(C)c(-c3ccccc3)c2n1 | 40.4 kMESF (inactive)
82 | O=C1C=C(c2ccccc2)C(=O)N1Nc1ccccc1 | 40.8 kMESF (inactive)
83 | C[C@@]12C(=O)OC(=O)[C@]1(C)C1CCC2O1 | 32.6 kMESF (inactive)
84 | O=C(Nc1ccc(Cl)cc1Cl)c1cccc(N2C(=O)C=CC2=O)c1 | 41.1 kMESF (inactive)
85 | Cc1nn2c(-c3ccncc3)nnc2c2ccccc12 | 22.9 kMESF (inactive)
86 | O=C1C=CC(=O)N1c1cccc(-c2ccccc2)c1 | 44.7 kMESF (inactive)
87 | O=[N+]([O-])c1c(Nc2ccccn2)cc(Cl)c2nonc12 | 26.8 kMESF (inactive)
88 | CC(C)(C)C(=O)NC(=S)NNC(=O)c1sc2ccccc2c1Cl | 34.2 kMESF (inactive)
89 | CCN(CC)c1ccc(/C=C2/C(=O)c3ccc(C(=O)O)cc3C2=O)cc1 | 655 kMESF (inactive)
